Laboratory results as given in PubChem BioAssay (NCI).
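The compound was tested at five concentrations on cells cultured in 96-well plates, with a 48-hour exposure period. TGI is the concentration that stops growth completely.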 Where a SMILES comes first, the peptide text is derived from it. [ ]: non-standard residue; d: D form. Ava = NCCCCC(=O)O; Mpa = O=C(O)CCS

Columns and labels:
Assay in all cases: growth of human tumour cells (NCI), 48 h
[1] = test system: COLO 205 colon
[2] = test system: MDA-MB-435
[3] = test system: NCI-H522 lung
[4] = test system: UACC-257 melanoma
[5] = test system: 786-0 renal
[6] = test system: BT-549 breast
[7] = test system: CCRF-CEM leukemia
[8] = test system: SF-539 CNS

## COP(=O)(OC)C(N)Cc1c[nH]c2ccccc12 (stereo unspecified)
[1]
  TGI: > 100 µM
[2]
  TGI: > 100 µM
[3]
  TGI: > 100 µM
[4]
  TGI: > 100 µM

## O=C(NC(=S)Nc1ccc(Br)cc1)c1ccc2c(c1)Sc1ccccc1O2
[5]
  TGI: > 100 µM
[6]
  TGI: > 100 µM
[7]
  TGI: > 100 µM
[1]
  TGI: > 100 µM
[2]
  TGI: > 100 µM
[3]
  TGI: > 100 µM
[8]
  TGI: > 100 µM
[4]
  TGI: > 100 µM

## O=C1OC(C(O)CO)C(C(O)CO)OC1=O (stereo unspecified)
[5]
  TGI: > 10 µM
[6]
  TGI: > 10 µM
[7]
  TGI: > 10 µM
[1]
  TGI: > 10 µM
[2]
  TGI: > 10 µM
[8]
  TGI: > 10 µM
[4]
  TGI: > 10 µM

## CS(=O)(=O)OCCN(CCOS(C)(=O)=O)c1ccc(C=Nc2ccc(-c3csc(Cc4ccccc4)n3)cc2)c(Cl)c1
[5]
  TGI: > 68.3 µM
[7]
  TGI: > 61.2 µM
[1]
  TGI: 36 µM
[2]
  TGI: > 78.2 µM
[3]
  TGI: > 76 µM
[8]
  TGI: > 59.6 µM
[4]
  TGI: 17.8 µM

## O=C(N/N=C\c1ccc(Cl)cc1)Nc1ccc2ccccc2c1
[5]
  TGI: 38.4 µM
[6]
  TGI: > 100 µM
[7]
  TGI: > 100 µM
[1]
  TGI: > 100 µM
[2]
  TGI: > 100 µM
[3]
  TGI: > 100 µM
[8]
  TGI: 75.7 µM
[4]
  TGI: > 100 µM

## O=C1C=C(NCCc2ccc(O)c([N+](=O)[O-])c2)C(=O)c2[nH]cnc21
[5]
  TGI: > 100 µM
[1]
  TGI: > 100 µM
[2]
  TGI: 33.7 µM
[3]
  TGI: 57.8 µM
[8]
  TGI: 90.5 µM
[4]
  TGI: 38.7 µM

## CC(O)C(CO)NC(=O)C1CSSCC(NC(=O)C(N)Cc2ccccc2)C(=O)NC(Cc2ccccc2)C(=O)NC(Cc2c[nH]c3ccccc23)C(=O)NC(CCCCN)C(=O)NC(C(C)O)C(=O)N1 (stereo unspecified)
[5]
  TGI: > 100 µM
[7]
  TGI: > 100 µM
[1]
  TGI: > 100 µM
[2]
  TGI: > 100 µM
[3]
  TGI: > 100 µM
[8]
  TGI: > 100 µM
[4]
  TGI: > 100 µM

## O=c1c(NCc2ccccc2)c(C2(c3ccccc3F)SCCCS2)c1=O
[5]
  TGI: > 100 µM
[6]
  TGI: > 100 µM
[7]
  TGI: > 100 µM
[1]
  TGI: > 100 µM
[2]
  TGI: > 100 µM
[3]
  TGI: > 100 µM
[8]
  TGI: > 100 µM
[4]
  TGI: > 100 µM

## CC(C)CC1c2[nH]c3ccccc3c2C[C@H]2C(=O)NC(Cc3c[nH]c4ccccc34)C(=O)N12 (stereo partly specified)
[5]
  TGI: 40.2 µM
[6]
  TGI: 36.2 µM
[1]
  TGI: 34.8 µM
[2]
  TGI: 34.4 µM
[3]
  TGI: 29.5 µM
[4]
  TGI: 28.9 µM

## Cc1cccc2c(=O)c3cccc([C@H](C)C(=O)O)c3oc12
[5]
  TGI: > 100 µM
[6]
  TGI: > 100 µM
[7]
  TGI: > 100 µM
[1]
  TGI: > 100 µM
[2]
  TGI: > 100 µM
[3]
  TGI: > 100 µM
[8]
  TGI: > 100 µM
[4]
  TGI: > 100 µM

## O=C1/C(=C/c2cccc([N+](=O)[O-])c2)N=C(c2ccccc2)N1c1nc2ccc(Sc3ccccc3)cc2[nH]1
[5]
  TGI: > 100 µM
[6]
  TGI: > 100 µM
[1]
  TGI: 96.8 µM
[2]
  TGI: 37 µM
[3]
  TGI: > 100 µM
[8]
  TGI: > 100 µM
[4]
  TGI: > 100 µM

## COc1ccc(-c2cc(-c3ccc(C)cc3)n(C3OC(COC(C)=O)C(OC(C)=O)C(OC(C)=O)C3OC(C)=O)c(=S)c2C#N)cc1 (stereo unspecified)
[5]
  TGI: > 100 µM
[6]
  TGI: > 100 µM
[1]
  TGI: > 100 µM
[2]
  TGI: > 100 µM
[3]
  TGI: > 100 µM
[8]
  TGI: > 100 µM

## O=C(Nc1ccccc1C(=O)NCc1ccccc1)/C(=C/c1ccccc1O)NC(=O)c1ccccc1
[5]
  TGI: > 100 µM
[7]
  TGI: > 100 µM
[1]
  TGI: > 100 µM
[2]
  TGI: > 100 µM
[3]
  TGI: > 100 µM
[8]
  TGI: > 100 µM
[4]
  TGI: > 100 µM

## N=c1oc2ccc3ccccc3c2cc1-c1nc2ccccc2c(=O)[nH]1
[5]
  TGI: > 100 µM
[6]
  TGI: 68.5 µM
[1]
  TGI: > 100 µM
[2]
  TGI: > 100 µM
[3]
  TGI: 28.8 µM
[8]
  TGI: > 100 µM
[4]
  TGI: > 100 µM

## CCCCn1c(=O)[nH]c2c(N)ncnc21
[5]
  TGI: > 100 µM
[6]
  TGI: > 100 µM
[7]
  TGI: > 100 µM
[1]
  TGI: > 100 µM
[2]
  TGI: > 100 µM
[3]
  TGI: > 100 µM
[8]
  TGI: > 100 µM
[4]
  TGI: > 100 µM

## CCCC(=O)OCC1OC(n2cc(F)c(=O)[nH]c2=O)CC1OC(=O)CCC (stereo unspecified)
[5]
  TGI: > 10 µM
[6]
  TGI: > 10 µM
[7]
  TGI: > 10 µM
[1]
  TGI: > 10 µM
[2]
  TGI: > 10 µM
[3]
  TGI: > 10 µM
[8]
  TGI: 0.281 µM
[4]
  TGI: > 10 µM

## COc1cc2ncnc(NS(=O)(=O)c3cc4ccccc4s3)c2cc1OC
[5]
  TGI: > 100 µM
[6]
  TGI: > 100 µM
[7]
  TGI: > 100 µM
[1]
  TGI: > 100 µM
[2]
  TGI: > 100 µM
[3]
  TGI: > 100 µM
[8]
  TGI: > 100 µM
[4]
  TGI: > 100 µM

## O=C(COc1cc(=O)oc2ccccc12)c1ccccc1
[5]
  TGI: > 100 µM
[6]
  TGI: > 100 µM
[7]
  TGI: > 100 µM
[3]
  TGI: 89.9 µM
[8]
  TGI: 58.7 µM
[4]
  TGI: > 100 µM

## COC(=O)C1(Cc2ccc3c(c2)CCC3)Cc2ccc3c(c2C1=O)CCC3 (stereo unspecified)
[5]
  TGI: > 91.3 µM
[6]
  TGI: > 46.1 µM
[7]
  TGI: > 83.1 µM
[1]
  TGI: 9.16 µM
[2]
  TGI: 6.13 µM
[3]
  TGI: 18.8 µM
[8]
  TGI: 34.8 µM
[4]
  TGI: > 100 µM

## COc1ccc2c(c1)/C(=C\c1c(Cl)nc3n1CCS3)C(=O)N2
[5]
  TGI: 45.9 µM
[6]
  TGI: 44 µM
[7]
  TGI: 79.2 µM
[1]
  TGI: 10.9 µM
[2]
  TGI: 4.82 µM
[3]
  TGI: 24.4 µM
[8]
  TGI: 24.9 µM
[4]
  TGI: 25.8 µM

## O=[N+]([O-])c1ccc2c(c1)nc1n2C(c2c(F)cccc2F)SC1 (stereo unspecified)
[5]
  TGI: > 100 µM
[6]
  TGI: > 100 µM
[7]
  TGI: > 100 µM
[1]
  TGI: > 100 µM
[2]
  TGI: > 100 µM
[3]
  TGI: > 100 µM
[8]
  TGI: > 100 µM
[4]
  TGI: > 100 µM

## CC1=NNC(=O)C1C1(C(=O)O)CC(c2c[nH]c3ccccc23)=NC(=S)N1 (stereo unspecified)
[5]
  TGI: > 100 µM
[6]
  TGI: > 100 µM
[7]
  TGI: 64.1 µM
[1]
  TGI: 34.1 µM
[2]
  TGI: > 100 µM
[3]
  TGI: 62.6 µM
[8]
  TGI: 67.9 µM
[4]
  TGI: > 100 µM

## CC(NC(=O)CCS)C(=O)NC(C)C(=O)NC(Cc1c[nH]c2ccccc12)C(=O)NC(Cc1c[nH]cn1)C(=O)NC(CO)C(=O)NC(Cc1c[nH]c2ccccc12)C(=O)NCCCCC(=O)NC(C)C(=O)NC(CCC(N)=O)C(=O)NC(CCCCN)C(=O)NC(C)C(=O)NC(CCCNC(=N)N)C(=O)NC(CCCCN)C(N)=O (stereo unspecified) ([Mpa]AAWHSW[Ava]AQKARK-NH2; configuration not given here)
[5]
  TGI: > 100 µM
[6]
  TGI: > 100 µM
[7]
  TGI: > 100 µM
[1]
  TGI: > 100 µM
[2]
  TGI: > 100 µM
[3]
  TGI: > 100 µM
[8]
  TGI: > 100 µM
[4]
  TGI: 63.1 µM

## CN(C)N1C(=O)C(=O)N(c2cccc3ccccc23)C1=O
[7]
  TGI: > 10 µM
[1]
  TGI: > 10 µM
[2]
  TGI: > 10 µM
[3]
  TGI: > 10 µM
[8]
  TGI: > 10 µM

## CCO/N=C\c1ccc2oc(-c3ccccc3)cc(=O)c2c1
[5]
  TGI: 17.7 µM
[6]
  TGI: 24.4 µM
[7]
  TGI: 26 µM
[1]
  TGI: 0.526 µM
[2]
  TGI: 2.49 µM
[3]
  TGI: 0.265 µM
[8]
  TGI: 2.86 µM
[4]
  TGI: 66 µM

## O=C(CC(C(=O)c1ccsc1)c1cccs1)c1ccccc1 (stereo unspecified)
[5]
  TGI: > 100 µM
[7]
  TGI: > 100 µM
[1]
  TGI: > 100 µM
[2]
  TGI: > 100 µM
[3]
  TGI: > 100 µM
[8]
  TGI: > 100 µM
[4]
  TGI: > 100 µM
